Test results from article PMC8309005, “Novel Non-Congeneric Derivatives of the Choline Kinase Alpha Inhibitor ICL-CCIC-0019” (Pharmaceutics, 2021).

Columns and labels:
22Rv1 cell line = test: Anti-proliferative SRB assay, 22Rv1; type: cell-based; settings: Homo sapiens; 22Rv1, PSMA +; Table S3, ± SD
Protocol: (§1) Half-maximal growth inhibitory concentrations (GI50) were determined using sulforhodamine B (SRB) assay as described elsewhere. In brief, cells were seeded in 96-wells at respective cell densities determined by their cell growth curves. After 24 h, the cells were treated in six replicates with medium or different concentrations of CHKA inhibitors in medium and incubated for another 72 h. On completion of incubation, the cells were fixed with 10% trichloroacetic acid (TCA) and stained with 0.4% SRB in 1% acetic acid. The stained protein was solubilized with 10 mM Tris base and optical density values were measured at 540 nm using a Multiskan® EX Micro plate photometer (Thermo Scientific, Loughborough, UK). Growth inhibition curves were plotted as percentage of the control groups and GI50 data were determined by least squares fitting method using GraphPad Prism 7.0. All the chemicals used in this experiment were obtained from Sigma-Aldrich (Gillingham, UK).

SPHK2 = molecular target: T1, SPHK2 (Homo sapiens, UniProt Q9NRA0); test: Lipid kinase screening (ADP-Glo), SPHK2; type: biochemical
T1 sequence (Q9NRA0 1-654): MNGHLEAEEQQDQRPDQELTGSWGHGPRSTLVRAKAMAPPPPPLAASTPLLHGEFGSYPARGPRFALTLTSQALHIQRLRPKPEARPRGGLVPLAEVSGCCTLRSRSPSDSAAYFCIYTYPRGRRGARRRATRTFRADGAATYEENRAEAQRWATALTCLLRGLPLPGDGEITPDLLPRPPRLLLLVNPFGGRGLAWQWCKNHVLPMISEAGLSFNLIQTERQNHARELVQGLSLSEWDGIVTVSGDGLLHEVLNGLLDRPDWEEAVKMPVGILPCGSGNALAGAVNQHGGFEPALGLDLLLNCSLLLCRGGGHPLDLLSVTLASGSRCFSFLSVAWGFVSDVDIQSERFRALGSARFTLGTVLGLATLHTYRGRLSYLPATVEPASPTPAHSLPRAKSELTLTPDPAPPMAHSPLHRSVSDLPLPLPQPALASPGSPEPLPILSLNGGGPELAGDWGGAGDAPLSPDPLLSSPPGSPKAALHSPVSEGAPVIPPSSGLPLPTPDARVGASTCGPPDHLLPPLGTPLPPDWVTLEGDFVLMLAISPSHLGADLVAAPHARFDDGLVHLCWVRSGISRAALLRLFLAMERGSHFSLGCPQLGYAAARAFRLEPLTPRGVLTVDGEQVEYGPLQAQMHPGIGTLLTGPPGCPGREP
Protocol: (§2) The lipid kinase screening for ICL-CCIC-0019, CK14, CK145 (5), CK146 (4) and CK147 (8) (testing concentration for all compounds: 10 μM) was performed by MRC PPU International Centre for Kinase Profiling (Dundee, UK). The lipid kinase screening panel includes 15 human recombinant lipid kinases and the tests used Promega ADP Glo^TM High Throughput Assay kit (Promega, Southampton, UK). For each assay, reference compounds were used as quality control. Finally, mean percentage activity inhibited by compounds and standard deviation for all the repeats were calculated.

PIP5K2A = molecular target: T2, PIP5K2A (Homo sapiens, UniProt P48426); test: Lipid kinase screening (ADP-Glo), PIP5K2A; type: biochemical
T2 sequence (P48426 1-406): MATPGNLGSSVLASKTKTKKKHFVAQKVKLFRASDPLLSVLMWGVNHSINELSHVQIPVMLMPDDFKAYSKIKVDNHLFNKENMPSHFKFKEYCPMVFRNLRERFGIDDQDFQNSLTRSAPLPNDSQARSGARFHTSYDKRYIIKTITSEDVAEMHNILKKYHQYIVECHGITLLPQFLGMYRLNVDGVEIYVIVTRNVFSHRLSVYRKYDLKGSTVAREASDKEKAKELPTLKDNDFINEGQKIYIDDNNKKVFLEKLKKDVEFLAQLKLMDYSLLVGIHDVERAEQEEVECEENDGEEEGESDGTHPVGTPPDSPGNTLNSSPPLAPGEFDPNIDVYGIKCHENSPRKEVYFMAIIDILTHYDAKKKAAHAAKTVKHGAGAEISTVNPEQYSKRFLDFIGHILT
Protocol: as §2

Kinetic solubility assay = type: physicochemical; settings: 0.1 M PBS (2% DMSO), aqueous buffer, kinetic from dmso stock; read-out: Kinetic Solubility: Solubility
Protocol: The ADME study for ICL-CCIC-0019, CK14, CK145 (5), CK146 (4) and CK147 (8) was performed by Charles River Drug Discovery Services (Essex, UK).
The predicted in vitro pharmacokinetic characteristics of compounds were evaluated by four ADME assays, namely kinetic solubility assay, metabolic stability assay using human liver microsome S9, permeability and efflux study using the Caco-2 cell line, and matrix stability assay using fasted state simulated gastric fluid (FaSSGF). All tested CHKA inhibitors were highly soluble (>150 μM) in 0.1 M PBS (2% DMSO) (Table 1). […] The in vivo clearance was calculated to predict the actual clearance in humans by scaling the clearance values, which takes into account liver weight, microsomes per liver and liver blood flow. […] In Caco-2 cell permeability assay, drug permeability was investigated and presented as apparent permeability coefficients (Papp) in A to B (A-B, apical to basolateral direction) and B to A (B-A, basolateral to apical direction).

PI3Ka E524K + p85 = test: Lipid kinase screening (ADP-Glo), PI3Ka E524K + p85; type: biochemical, human; settings: 10 μM
Protocol: as §2

[1] = molecular target: phosphatidylinositol 4-kinase beta (PIK4CB) (Homo sapiens, UniProt Q9UBF8); test: Lipid kinase screening (ADP-Glo), PIK4CB; type: biochemical
Protocol: as §2

DGK b = DGK b (Homo sapiens, UniProt Q9Y6T7); test: Lipid kinase screening (ADP-Glo), DGK b; type: biochemical
Protocol: as §2

HCT-116 cells = test: Anti-proliferative SRB assay, HCT-116; type: cell-based; settings: Homo sapiens
Protocol: as §1

HepG2 cells = test: Anti-proliferative SRB assay, HepG2; type: cell-based; settings: Homo sapiens, 72 h, Table S2, ± SD
Protocol: as §1

CHK a (CHKA) = CHK a (CHKA) (Homo sapiens, UniProt P35790); test: Lipid kinase screening (ADP-Glo), CHKA; type: biochemical; settings: for % Inhibition CHK a: 10 μM
Protocol: as §2

R1AD1 cell line = test: Anti-proliferative SRB assay, R1AD1; type: cell-based; settings: Homo sapiens; R1AD1, PSMA −; Table S3, ± SD
Protocol: as §1

Caco-2 cells = test: Anti-proliferative SRB assay, Caco-2; type: cell-based; settings: Homo sapiens; Caco-2, SRB, 72 h; Table S2, ± SD
Protocol: as §1

C4-2B cell line = test: Anti-proliferative SRB assay, C4-2B; type: cell-based; settings: Homo sapiens, PSMA +, Table S3, ± SD
Protocol: as §1

PNT1A cell line = test: Anti-proliferative SRB assay, PNT1A; type: cell-based; settings: Homo sapiens, PSMA −, Table S3, ± SD
Protocol: as §1

[2] = tested on: four cancer cell lines (HCT-116, A549, HepG2, Caco-2); test: Anti-proliferative SRB assay, mean of four cancer cell lines; type: cell-based; settings: Homo sapiens
Protocol: as §1

[3] = HCT-116, PSMA −, Table S3, ± SD
[4] = HCT-116, SRB, 72 h, Table S2, ± SD

Sequence of phosphatidylinositol 4-kinase beta (PIK4CB) (Q9UBF8 whole entry): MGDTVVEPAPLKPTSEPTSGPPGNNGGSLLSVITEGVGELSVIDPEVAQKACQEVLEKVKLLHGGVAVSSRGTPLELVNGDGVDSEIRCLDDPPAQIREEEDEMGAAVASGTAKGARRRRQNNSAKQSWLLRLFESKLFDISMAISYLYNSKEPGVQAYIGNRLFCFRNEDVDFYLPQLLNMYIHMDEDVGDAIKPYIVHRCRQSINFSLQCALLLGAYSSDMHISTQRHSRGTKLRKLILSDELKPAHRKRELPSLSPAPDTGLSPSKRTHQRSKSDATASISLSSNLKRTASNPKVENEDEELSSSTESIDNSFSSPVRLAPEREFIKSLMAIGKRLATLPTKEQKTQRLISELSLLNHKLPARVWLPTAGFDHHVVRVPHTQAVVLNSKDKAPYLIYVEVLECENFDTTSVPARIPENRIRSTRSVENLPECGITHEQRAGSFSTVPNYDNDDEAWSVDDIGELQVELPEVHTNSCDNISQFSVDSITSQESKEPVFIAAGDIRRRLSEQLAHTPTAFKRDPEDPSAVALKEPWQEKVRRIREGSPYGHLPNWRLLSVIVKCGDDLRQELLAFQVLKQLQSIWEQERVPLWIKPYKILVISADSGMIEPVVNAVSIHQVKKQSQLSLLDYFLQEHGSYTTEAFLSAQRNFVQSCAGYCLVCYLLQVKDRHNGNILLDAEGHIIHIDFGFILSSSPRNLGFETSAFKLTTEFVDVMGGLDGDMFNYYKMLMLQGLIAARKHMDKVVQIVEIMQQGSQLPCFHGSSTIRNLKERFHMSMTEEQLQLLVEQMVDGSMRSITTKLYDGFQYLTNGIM
Sequence of CHK a (CHKA) (P35790 whole entry): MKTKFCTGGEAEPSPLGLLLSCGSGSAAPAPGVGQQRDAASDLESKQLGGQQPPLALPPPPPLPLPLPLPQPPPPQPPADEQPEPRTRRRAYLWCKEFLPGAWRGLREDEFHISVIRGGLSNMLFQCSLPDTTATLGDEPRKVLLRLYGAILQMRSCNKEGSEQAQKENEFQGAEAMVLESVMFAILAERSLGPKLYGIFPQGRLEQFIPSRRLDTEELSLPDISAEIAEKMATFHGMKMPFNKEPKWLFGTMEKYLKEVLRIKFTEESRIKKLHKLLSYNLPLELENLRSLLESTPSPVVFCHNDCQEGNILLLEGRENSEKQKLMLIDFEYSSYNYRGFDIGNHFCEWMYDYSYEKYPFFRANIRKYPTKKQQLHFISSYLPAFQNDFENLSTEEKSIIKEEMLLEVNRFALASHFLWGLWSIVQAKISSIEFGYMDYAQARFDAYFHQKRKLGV

Compound | GI50 (22Rv1 cell line) | inhibition at 10 µM (SPHK2) | inhibition at 10 µM (PIP5K2A) | solubility kinetic (Kinetic solubility assay) | % Inhibition PI3Ka E524K + p85 (PI3Ka E524K + p85) | inhibition at 10 µM [1] | inhibition at 10 µM (DGK b) | GI50 (HCT-116 cells; [3]) | GI50 (HCT-116 cells; [4]) | GI50 (HepG2 cells) | inhibition at 10 µM (CHK a (CHKA)) | % Inhibition CHK a (CHK a (CHKA)) | GI50 (R1AD1 cell line) | GI50 (Caco-2 cells) | GI50 (C4-2B cell line) | GI50 (PNT1A cell line) | GI50 [2] | % Inhibition PIK4CB ([1]; 10 μM)
CN(C)c1cc[n+](CCCCCCCCCCCCCC[n+]2ccc(N3CCNCC3)cc2)cc1 [CK146] | 4.98 ± 1.5 µM | 10% | 1.4% | 158 µM | −6.5% | 47% | 1.1% | 4.76 ± 0.8 µM | 4.76 ± 0.8 µM | 0.21 ± 0.01 µM | 69% | 69.1% | 5.67 ± 2.33 µM | 3.09 ± 0.05 µM | 4.22 ± 0.43 µM | 3 ± 0.26 µM | 2.5 ± 0.3 µM | –
CN(C)c1cc[n+](CCCCCCCCCCCC[n+]2ccc(N(C)C)cc2)cc1 [ICL-CCIC-0019] | 0.91 ± 0.13 µM | 22.4% | -16.1% | 161 µM | 1.6% | -24.1% | 8.6% | 0.42 ± 0.03 µM | 0.42 ± 0.03 µM | 0.18 ± 0.01 µM | 53% | 53.4% | 0.4 ± 0.01 µM | 1.19 ± 0.04 µM | 1.2 ± 0.31 µM | 0.47 ± 0.08 µM | 0.5 ± 0.02 µM | –
CC(=O)NCCCCC(NC(=O)OC(C)(C)C)C(=O)N1CCN(c2cc[n+](CCCCCCCCCCCCCC[n+]3ccc(N(C)C)cc3)cc2)CC1 (stereo not shown) [CK145] | 45.6 ± 6.4 µM | 13.2% | 0.4% | 178 µM | −0.1% | 51% | 8% | 103 ± 6.27 µM | 6.63 ± 0.2 µM | 2.25 ± 0.06 µM | 63% | 62.9% | 53.4 ± 2.27 µM | 10.8 ± 1 µM | 63 ± 12.1 µM | 63.6 ± 10.4 µM | 5 ± 0.3 µM | 50.6%
